According to patent US8710065B2, “Tricyclic inhibitors of kinases” (AbbVie Inc., priority 2011, dated 2014):

Biological target: T1, GST-tagged-Wee1 kinase (Homo sapiens, UniProt P30291)
T1 construct: purchased Carnabio (Carna Biosciences) 05-177
Experiment: Wee1 time-resolved fluorescence equilibrium binding assay (displacement of Oregon Green-labeled ATP-competitive kinase probe)
Conditions: read-out: Wee-1 inhibition (Ki)
Summary of the method: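 Time-resolved fluorescence equilibrium binding with GST-Wee1, measuring displacement of a rapidly reversible Oregon Green-labelled ATP-competitive probe by competitive inhibitors; values reported as Ki.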

T1 sequence (P30291 whole entry): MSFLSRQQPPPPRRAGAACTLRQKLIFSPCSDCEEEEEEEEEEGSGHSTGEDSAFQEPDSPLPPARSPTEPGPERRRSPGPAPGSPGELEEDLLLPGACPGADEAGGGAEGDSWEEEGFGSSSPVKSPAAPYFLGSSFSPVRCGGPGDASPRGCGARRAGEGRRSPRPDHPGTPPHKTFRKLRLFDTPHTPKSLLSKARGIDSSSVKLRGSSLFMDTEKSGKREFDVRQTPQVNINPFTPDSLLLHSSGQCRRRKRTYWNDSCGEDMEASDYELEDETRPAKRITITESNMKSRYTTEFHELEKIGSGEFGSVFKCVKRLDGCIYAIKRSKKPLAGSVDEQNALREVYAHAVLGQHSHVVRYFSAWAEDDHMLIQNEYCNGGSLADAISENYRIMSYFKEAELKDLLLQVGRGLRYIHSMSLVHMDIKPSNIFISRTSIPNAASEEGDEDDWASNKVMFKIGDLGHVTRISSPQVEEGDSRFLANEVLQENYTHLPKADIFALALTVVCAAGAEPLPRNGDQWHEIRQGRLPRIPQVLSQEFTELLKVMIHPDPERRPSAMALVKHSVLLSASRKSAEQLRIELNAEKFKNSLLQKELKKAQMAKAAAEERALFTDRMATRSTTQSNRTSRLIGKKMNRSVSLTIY

Structure (SMILES)	Ki [nM]
CCC(CC)CN1Cc2cc(Nc3ncc4c(=O)n(-c5ccccc5Cl)c5nccn5c4n3)ccc2C(C)(C)C1 [Example 117, 6-(2-chlorophenyl)-2-{[2-(2-ethylbutyl)-4,4-dimethyl-1,2,3,4-tetrahydroisoquinolin-7-yl]amino}imidazo[1,2-a]pyrimido[5,4-e]pyrimidin-5(6H)-one]	10 to 100
O=c1c2cnc(Nc3ccc4c(c3)CNCC4)nc2n2ccnc2n1-c1ccccc1Cl [Example 21, 6-(2-chlorophenyl)-2-(1,2,3,4-tetrahydroisoquinolin-7-ylamino)imidazo[1,2-a]pyrimido[5,4-e]pyrimidin-5(6H)-one]	< 10
CN1CCC(c2ccc(Nc3ncc4c(=O)n(-c5ccccc5Cl)c5nccn5c4n3)cc2)CC1 [Example 38, 6-(2-chlorophenyl)-2-{[4-(1-methylpiperidin-4-yl)phenyl]amino}imidazo[1,2-a]pyrimido[5,4-e]pyrimidin-5(6H)-one]	< 10
O=c1c2cnc(Nc3ccc(N4CCCC(C(F)(F)F)C4)cc3)nc2n2ccnc2n1-c1ccccc1Cl (stereo not drawn) [Example 231, 6-(2-chlorophenyl)-2-({4-[3-(trifluoromethyl)piperidin-1-yl]phenyl}amino)imidazo[1,2-a]pyrimido[5,4-e]pyrimidin-5(6H)-one]	10 to 100
O=c1c2cnc(Nc3ccc4c(c3)CN(CC(F)F)CC43CC3)nc2n2ccnc2n1-c1c(F)cccc1Cl [Example 224, 6-(2-chloro-6-fluorophenyl)-2-{[2′-(2,2-difluoroethyl)-2′,3′-dihydro-1′H-spiro[cyclopropane-1,4′-isoquinolin]-7′-yl]amino}imidazo[1,2-a]pyrimido[5,4-e]pyrimidin-5(6H)-one]	< 10
O=c1c2cnc(Nc3ccc(N4CCCC(F)(F)C4)cc3)nc2n2ccnc2n1-c1c(Cl)cccc1Cl [Example 154, 6-(2,6-dichlorophenyl)-2-{[4-(3,3-difluoropiperidin-1-yl)phenyl]amino}imidazo[1,2-a]pyrimido[5,4-e]pyrimidin-5(6H)-one]	< 10
CN1Cc2cc(Nc3ncc4c(=N)n(-c5ccccc5Cl)c5nccn5c4n3)ccc2C(C)(C)C1 [Example 335, 6-(2-chlorophenyl)-5-imino-N-(2,4,4-trimethyl-1,2,3,4-tetrahydroisoquinolin-7-yl)-5,6-dihydroimidazo[1,2-a]pyrimido[5,4-e]pyrimidin-2-amine]	< 10
O=c1c2cnc(Nc3ccc(N4CCNCC4)c(C(F)(F)F)c3)nc2n2ccnc2n1-c1ccccc1Cl [Example 75, 6-(2-chlorophenyl)-2-{[4-(piperazin-1-yl)-3-(trifluoromethyl)phenyl]amino}imidazo[1,2-a]pyrimido[5,4-e]pyrimidin-5(6H)-one]	< 10
CC(C)N1CCN(c2ccc(Nc3ncc4c(=O)n(-c5c(Cl)cccc5Cl)c5nccn5c4n3)cc2)CC1 [Example 115, 6-(2,6-dichlorophenyl)-2-({4-[4-(propan-2-yl)piperazin-1-yl]phenyl}amino)imidazo[1,2-a]pyrimido[5,4-e]pyrimidin-5(6H)-one]	< 10
O=c1c2cnc(Nc3ccc(N4CCC(N5CCCCC5)CC4)cc3)nc2n2ccnc2n1-c1c(Cl)cccc1Cl [Example 282, 2-{[4-(1,4′-bipiperidin-1′-yl)phenyl]amino}-6-(2,6-dichlorophenyl)imidazo[1,2-a]pyrimido[5,4-e]pyrimidin-5(6H)-one]	< 10
C[C@@H]1CN(c2ccc(Nc3ncc4c(=O)n(-c5c(Cl)cccc5Cl)c5nccn5c4n3)cc2F)C[C@H](C)N1 [Example 128, 6-(2,6-dichlorophenyl)-2-({4-[(3R,5S)-3,5-dimethylpiperazin-1-yl]-3-fluorophenyl}amino)imidazo[1,2-a]pyrimido[5,4-e]pyrimidin-5(6H)-one]	< 10
CC(C)N1Cc2cc(Nc3ncc4c(=O)n(-c5ccccc5Cl)c5nccn5c4n3)ccc2C(C)(C)C1 [Example 144, 6-(2-chlorophenyl)-2-{[4,4-dimethyl-2-(propan-2-yl)-1,2,3,4-tetrahydroisoquinolin-7-yl]amino}imidazo[1,2-a]pyrimido[5,4-e]pyrimidin-5(6H)-one]	< 10
CN1Cc2cc(Nc3ncc4c(=O)n(-c5c(Cl)cccc5Cl)c5nccn5c4n3)ccc2C(C)(C)C1 [Example 152, 6-(2,6-dichlorophenyl)-2-[(2,4,4-trimethyl-1,2,3,4-tetrahydroisoquinolin-7-yl)amino]imidazo[1,2-a]pyrimido[5,4-e]pyrimidin-5(6H)-one]	< 10
CC1(C)CN(C(=O)C2CC2)Cc2cc(Nc3ncc4c(=O)n(-c5c(F)cccc5Cl)c5nccn5c4n3)ccc21 [Example 311, 6-(2-chloro-6-fluorophenyl)-2-{[2-(cyclopropylcarbonyl)-4,4-dimethyl-1,2,3,4-tetrahydroisoquinolin-7-yl]amino}imidazo[1,2-a]pyrimido[5,4-e]pyrimidin-5(6H)-one]	< 10
O=c1c2cnc(Nc3ccc(N4CCNCC4)c(C(F)(F)F)c3)nc2n2ccnc2n1-c1c(Cl)cccc1Cl [Example 156, 6-(2,6-dichlorophenyl)-2-{[4-(piperazin-1-yl)-3-(trifluoromethyl)phenyl]amino}imidazo[1,2-a]pyrimido[5,4-e]pyrimidin-5(6H)-one]	< 10
O=c1c2cnc(Nc3cccc(CN4CCCC4)c3)nc2n2ccnc2n1-c1ccccc1Cl [Example 11, 6-(2-chlorophenyl)-2-{[3-(pyrrolidin-1-ylmethyl)phenyl]amino}imidazo[1,2-a]pyrimido[5,4-e]pyrimidin-5(6H)-one]	10 to 100
O=c1c2cnc(Nc3cc(F)c(N4CCNCC4)c(F)c3)nc2n2ccnc2n1-c1c(Cl)cccc1Cl [Example 129, 6-(2,6-dichlorophenyl)-2-{[3,5-difluoro-4-(piperazin-1-yl)phenyl]amino}imidazo[1,2-a]pyrimido[5,4-e]pyrimidin-5(6H)-one]	< 10
CN(C)C1CCN(c2ccc(Nc3ncc4c(=O)n(-c5c(Cl)cccc5Cl)c5nccn5c4n3)cc2)CC1 [Example 215, 6-(2,6-dichlorophenyl)-2-({4-[4-(dimethylamino)piperidin-1-yl]phenyl}amino)imidazo[1,2-a]pyrimido[5,4-e]pyrimidin-5(6H)-one]	< 10
O=c1c2cnc(Nc3ccc4snnc4c3)nc2n2ccnc2n1-c1c(Cl)cccc1Cl [Example 181, 2-(1,2,3-benzothiadiazol-5-ylamino)-6-(2,6-dichlorophenyl)imidazo[1,2-a]pyrimido[5,4-e]pyrimidin-5(6H)-one]	10 to 100
O=c1c2cnc(Nc3ccc(N4CCN5CCCC5C4)cc3)nc2n2ccnc2n1-c1ccccc1Cl (stereo not drawn) [Example 101, 6-(2-chlorophenyl)-2-{[4-(hexahydropyrrolo[1,2-a]pyrazin-2(1H)-yl)phenyl]amino}imidazo[1,2-a]pyrimido[5,4-e]pyrimidin-5(6H)-one]	< 10
Cc1c(O)cccc1-n1c(=O)c2cnc(Nc3ccccc3)nc2n2ccnc12 [Example 54, 6-(3-hydroxy-2-methylphenyl)-2-(phenylamino)imidazo[1,2-a]pyrimido[5,4-e]pyrimidin-5(6H)-one]	10 to 100
Cc1cccc(C)c1-n1c(=O)c2cnc(Nc3ccc4c(c3)CN(C)CC43CC3)nc2n2ccnc12 [Example 62, 6-(2,6-dimethylphenyl)-2-[(2′-methyl-2′,3′-dihydro-1′H-spiro[cyclopropane-1,4′-isoquinolin]-7′-yl)amino]imidazo[1,2-a]pyrimido[5,4-e]pyrimidin-5(6H)-one]	< 10
O=C(Nc1ccc(Nc2ncc3c(=O)n(-c4ccccc4Cl)c4nccn4c3n2)cc1)C1CCCC1 [Example 58, N-(4-{[6-(2-chlorophenyl)-5-oxo-5,6-dihydroimidazo[1,2-a]pyrimido[5,4-e]pyrimidin-2-yl]amino}phenyl)cyclopentanecarboxamide]	10 to 100
CC(C)n1c(=O)c2cnc(Nc3ccc(N4CCN(C)CC4)cc3)nc2n2ccnc12 [Example 346, 2-{[4-(4-methylpiperazin-1-yl)phenyl]amino}-6-(propan-2-yl)imidazo[1,2-a]pyrimido[5,4-e]pyrimidin-5(6H)-one]	10 to 100
O=c1c2cnc(Nc3ccc4c(c3)CCCC4)nc2n2ccnc2n1-c1ccccc1Cl [Example 5, 6-(2-chlorophenyl)-2-(5,6,7,8-tetrahydronaphthalen-2-ylamino)imidazo[1,2-a]pyrimido[5,4-e]pyrimidin-5(6H)-one]	10 to 100
O=c1c2cnc(Nc3ccc(N4CCC5(CC4)CNC5)cc3)nc2n2ccnc2n1-c1c(Cl)cccc1Cl [Example 288, 2-{[4-(2,7-diazaspiro[3.5]non-7-yl)phenyl]amino}-6-(2,6-dichlorophenyl)imidazo[1,2-a]pyrimido[5,4-e]pyrimidin-5(6H)-one]	< 10
CS(=O)(=O)N1CCC2(CN(c3ccc(Nc4ncc5c(=O)n(-c6c(Cl)cccc6Cl)c6nccn6c5n4)cc3)C2)C1 [Example 324, 6-(2,6-dichlorophenyl)-2-({4-[6-(methylsulfonyl)-2,6-diazaspiro[3.4]oct-2-yl]phenyl}amino)imidazo[1,2-a]pyrimido[5,4-e]pyrimidin-5(6H)-one]	< 10
CC1(C)CN(CC2CCCCC2)Cc2cc(Nc3ncc4c(=O)n(-c5ccccc5Cl)c5nccn5c4n3)ccc21 [Example 113, 6-(2-chlorophenyl)-2-{[2-(cyclohexylmethyl)-4,4-dimethyl-1,2,3,4-tetrahydroisoquinolin-7-yl]amino}imidazo[1,2-a]pyrimido[5,4-e]pyrimidin-5(6H)-one]	< 10
CC(=O)N1Cc2cc(Nc3ncc4c(=O)n(-c5ccccc5Cl)c5nccn5c4n3)ccc2C2(CC2)C1 [Example 91, 2-[(2′-acetyl-2′,3′-dihydro-1′H-spiro[cyclopropane-1,4′-isoquinolin]-7′-yl)amino]-6-(2-chlorophenyl)imidazo[1,2-a]pyrimido[5,4-e]pyrimidin-5(6H)-one]	< 10
O=c1c2cnc(Nc3ccc(N4CCN5CCCCC5C4)cc3)nc2n2ccnc2n1-c1ccccc1Cl (stereo not drawn) [Example 208, 6-(2-chlorophenyl)-2-{[4-(octahydro-2H-pyrido[1,2-a]pyrazin-2-yl)phenyl]amino}imidazo[1,2-a]pyrimido[5,4-e]pyrimidin-5(6H)-one]	< 10
